Laboratory results published in patent US8394796B2, “Bicyclic pyrimidine PI3K inhibitor compounds selective for P110 delta, and methods of use” (Genentech, Inc., priority 2009, dated 2013).
Read-outs that look alike come from different tables or passages of the source.

Legend:
[1] = system: CD69 positive cells that are also CD20 positive, stimulated by anti-IgM, in human whole blood; assay: CD69 whole blood assay (human whole blood, anti-IgM stimulated); format: cell-based; conditions: read-out: IC50 in the CD69 Whole Blood Assay
Description: Human blood is obtained from healthy volunteers, with the following restrictions: 1 week drug-free, non-smokers. Blood (approximately 20 mls to test 8 compounds) is collected by venipuncture into Vacutainer tubes with sodium heparin.
Solutions of Formula I compounds at 1000 or 2000 μM in PBS (20×), are diluted by three-fold serial dilutions in 10% DMSO in PBS for a nine point dose-response curve. An aliquot of 5.5 μl of each compound is added in duplicate to a 2 ml 96-well plate; 5.5 μl of 10% DMSO in PBS is added as control and no-stimulus wells. Human whole blood—HWB (100 μl) is added to each well. After mixing the plates are incubated at 37° C., 5% CO2, 100% humidity for 30 minutes. Goat F(ab′)2 anti-human IgM (10 μl of a […] solution, 50 μg/ml final) is added to each well (except the no-stimulus wells) with mixing and the plates are incubated for an additional 20 hours. At the end of the 20 hour incubation, samples are incubated with florescent labeled antibodies for 30 minutes, at 37° C., 5% CO2, 100% humidity. Include induced control, unstained and single stains for compensation adjustments and initial voltage settings. Samples are then lysed with Pharmingen Lyse according to the manufacturer's instructions. Samples are then transferred to a 96 well plate suitable to be run on the AMS 96 well system on the BD Calibur FACs machine. Data acquired and Mean Fluorescence Intensity values were obtained using Cell Quest Software. Results are initially analyzed by FACS analysis software (Flow Jo). […] The IC50 values are calculated by Activityl)ase using Xlfit version 3, equation 201.

[2] = biological target: T1, p110δ/p85α (PI3K p110 delta) (Homo sapiens, UniProt O00329); assay: PI3K isoform inhibition assay (fluorescence polarization PIP3 displacement; alternatively radiometric), p110 delta; format: biochemical; conditions: for IC50: PI3K p110 delta binding IC50; for IC50 p110 alpha/IC50 p110 delta: delta/alpha selectivity: ratio of p110 alpha IC50 to p110 delta IC50
T1 construct: purchased Upstate Group, Millipore; Dundee, UK
T1 sequence (O00329 whole entry, canonical isoform): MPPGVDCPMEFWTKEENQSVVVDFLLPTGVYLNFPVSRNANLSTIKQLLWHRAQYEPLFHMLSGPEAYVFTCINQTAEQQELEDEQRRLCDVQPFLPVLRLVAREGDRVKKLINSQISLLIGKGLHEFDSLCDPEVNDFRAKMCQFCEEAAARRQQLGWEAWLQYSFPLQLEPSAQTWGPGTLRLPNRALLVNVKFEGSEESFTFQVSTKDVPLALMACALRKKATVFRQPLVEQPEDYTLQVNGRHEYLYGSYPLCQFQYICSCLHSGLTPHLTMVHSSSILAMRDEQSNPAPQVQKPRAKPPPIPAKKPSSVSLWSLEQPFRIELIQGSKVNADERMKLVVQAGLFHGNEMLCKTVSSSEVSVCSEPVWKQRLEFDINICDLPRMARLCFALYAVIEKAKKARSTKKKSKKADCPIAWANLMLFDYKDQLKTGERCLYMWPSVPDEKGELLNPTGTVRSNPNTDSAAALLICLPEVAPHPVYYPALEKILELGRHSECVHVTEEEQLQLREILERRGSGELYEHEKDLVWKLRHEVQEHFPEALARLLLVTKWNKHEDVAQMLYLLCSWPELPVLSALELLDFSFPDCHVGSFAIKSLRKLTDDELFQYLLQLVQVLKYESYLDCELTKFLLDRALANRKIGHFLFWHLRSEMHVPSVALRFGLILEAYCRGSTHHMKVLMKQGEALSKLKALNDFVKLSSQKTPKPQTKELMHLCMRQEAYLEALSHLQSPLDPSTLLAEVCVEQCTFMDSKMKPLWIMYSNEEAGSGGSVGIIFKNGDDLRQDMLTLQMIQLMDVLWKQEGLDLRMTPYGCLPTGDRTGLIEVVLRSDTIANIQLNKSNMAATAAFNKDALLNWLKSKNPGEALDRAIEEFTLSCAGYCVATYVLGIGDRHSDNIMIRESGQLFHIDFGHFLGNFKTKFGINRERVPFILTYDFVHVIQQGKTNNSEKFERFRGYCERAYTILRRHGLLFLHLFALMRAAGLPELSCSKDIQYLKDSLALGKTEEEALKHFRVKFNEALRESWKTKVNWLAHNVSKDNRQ
T1 sequence (P27986 whole entry partner, canonical isoform): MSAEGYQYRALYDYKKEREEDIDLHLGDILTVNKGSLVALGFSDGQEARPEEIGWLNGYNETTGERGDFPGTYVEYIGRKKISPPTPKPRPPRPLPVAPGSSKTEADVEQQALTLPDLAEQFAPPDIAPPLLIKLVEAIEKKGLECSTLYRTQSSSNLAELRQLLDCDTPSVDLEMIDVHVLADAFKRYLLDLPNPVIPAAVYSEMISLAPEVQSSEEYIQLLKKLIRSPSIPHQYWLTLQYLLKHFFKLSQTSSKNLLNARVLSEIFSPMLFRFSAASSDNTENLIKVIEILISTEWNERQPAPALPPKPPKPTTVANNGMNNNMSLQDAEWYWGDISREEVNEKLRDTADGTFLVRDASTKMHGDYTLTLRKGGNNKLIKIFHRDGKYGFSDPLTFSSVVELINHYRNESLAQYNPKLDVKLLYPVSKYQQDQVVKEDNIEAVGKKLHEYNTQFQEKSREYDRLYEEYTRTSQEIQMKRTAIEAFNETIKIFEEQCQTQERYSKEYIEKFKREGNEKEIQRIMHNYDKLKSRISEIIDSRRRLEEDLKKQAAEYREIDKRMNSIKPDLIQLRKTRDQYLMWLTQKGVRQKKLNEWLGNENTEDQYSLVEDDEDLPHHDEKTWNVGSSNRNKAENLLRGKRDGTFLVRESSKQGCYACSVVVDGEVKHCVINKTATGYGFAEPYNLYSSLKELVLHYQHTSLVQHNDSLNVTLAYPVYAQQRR
Description: PI3K Isoform Inhibition Assay (p110 Alpha, Beta, Gamma, Delta: α, β, γ, δ)
PI3K enzymatic activity was assayed by measuring the amount of product phosphatidylinositol 3,4,5-phosphate (PIP3) formed from substrate 4,5 phosphatidylinositol 4,5-phosphate (PIP2) using a fluorescence polarization displacement assay. The decrease in fluorescence polarization of a fluorescent PIP3 probe is measured as it is displaced from a PIP3-binding protein GRP-1 detector by PI3K-catalyzed product. […] The kinase reactions were initiated by the addition of 40 ng/mL p110α/p85α, 300 ng/mL p110β/p85α, 40 ng/mL p110γ, or 40 ng/mL p110δ/p85α (Upstate Group, Millipore; Dundee, UK), and 10 μM PIP2 (Echelon Biosciences) to the wells. […] After 60 minutes of incubation at room temperature to allow equilibration of labeled and unlabeled PIP3 binding, the parallel and perpendicular components of the fluorescence emissions from each sample were measured at an excitation wavelength of 530 nm and an emission wavelength of 590 nm using an Envision fluorescent plate reader with a rhodamine filter (PerkinElmer Life and Analytical Sciences; Wellesley, Mass.). The assay is capable of detecting 0.1-2.0 μM PIP3 product. The IC50 values were obtained by fitting the dose-dependent inhibition data to a 4-parameter equation using Assay Explorer software (MDL, San Ramon, Calif.).
The Formula I compound was serially diluted in 100% DMSO. The kinase reaction was incubated for 1 h at room temperature, and the reaction was terminated by the addition of PBS. IC50 values were subsequently determined using sigmoidal dose-response curve fit (variable slope).
HT baculovirus expression system (GIBCO/BRL), and then purified for use in biochemical assays. The four Class I PI 3-kinases are cloned into baculovirus vectors as follows: […]

[3] = concentration decreasing by 50% the percent CD69 positive of CD20 positive cells stimulated by anti-IgM, 20 hours

SMILES	IC50 [1, 3] [nM]	IC50 [2] [nM]	IC50 p110 alpha/IC50 p110 delta [2]	IC50 ([1]; 20 h) [nM]
Cc1nc2ccccc2n1-c1nc(N2CCOCC2)c2oc(CN3CCN(C(C)(C)C(N)=O)CC3)cc2n1 [Example 240, 2-methyl-2-(4-((2-(2-methyl-1H-benzo[d]imidazol-1-yl)-4-morpholinofuro[3,2-d]pyrimidin-6-yl)methyl)piperazin-1-yl)propanamide]	17.8	2.74	64	
CN(C)C1CCN(Cc2cc3nc(-c4ccc(O)c5nccn45)nc(N4CCOCC4)c3s2)CC1 [Example 689, 5-(6-((4-(dimethylamino)piperidin-1-yl)methyl)-4-morpholinothieno[3,2-d]pyrimidin-2-yl)imidazo[1,2-a]pyridin-8-ol]		25.8	23	29
Cc1nc2ccccc2n1-c1nc(N2CCOCC2)c2nc(CN3CCC(C(C)(C)O)CC3)[nH]c2n1 [Example 702, 2-(1-((2-(2-methyl-1H-benzo[d]imidazol-1-yl)-6-morpholino-9H-purin-8-yl)methyl)piperidin-4-yl)propan-2-ol]	28.6			
CC(C)c1nc2ccccc2n1-c1nc(N2CCOCC2)c2nc(CN3CCN(C(C)(C)CO)CC3)[nH]c2n1 [Example 490, 2-(4-((2-(2-isopropyl-1H-benzo[d]imidazol-1-yl)-6-morpholino-9H-purin-8-yl)methyl)piperazin-1-yl)-2-methylpropan-1-ol]	38.3	2.38	111	
CCc1nc2ccccc2n1-c1nc(N2CCOCC2)c2nc(CN3CCC(C4COC4)CC3)n(C)c2n1 [Example 314, 4-(2-(2-ethyl-1H-benzo[d]imidazol-1-yl)-9-methyl-8-((4-(oxetan-3-yl)piperidin-1-yl)methyl)-9H-purin-6-yl)morpholine]	44.1			

The next lines start with results.

IC50 [1, 3] [nM]	IC50 [2] [nM]	IC50 p110 alpha/IC50 p110 delta [2]	SMILES	IC50 ([1]; 20 h) [nM]
22			Cn1c(CN2CCN(C(C)(C)C)CC2)nc2c(N3CCOCC3)nc(-n3c(C4CC4)nc4ccccc43)nc21 [Example 403, 4-(8-((4-tert-butylpiperazin-1-yl)methyl)-2-(2-cyclopropyl-1H-benzo[d]imidazol-1-yl)-9-methyl-9H-purin-6-yl)morpholine]	
34.2			CNc1nc2ccccc2n1-c1nc(N2CCOCC2)c2nc(CN3CCN(C(C)(C)C)CC3)n(C)c2n1 [Example 428, 1-(8-((4-tert-butylpiperazin-1-yl)methyl)-9-methyl-6-morpholino-9H-purin-2-yl)-N-methyl-1H-benzo[d]imidazol-2-amine]	
20.6			Cc1nc2ccccc2n1-c1nc(N2CCOCC2)c2nc(CN3CCN(C(C)(C)C(N)=O)CC3)n(C)c2n1 [Example 406, 2-methyl-2-(4-((9-methyl-2-(2-methyl-1H-benzo[d]imidazol-1-yl)-6-morpholino-9H-purin-8-yl)methyl)piperazin-1-yl)propanamide]	
